# Source: US10913727B2, “Modulators of the integrated stress pathway” (Calico Life Sciences LLC, priority 2016, dated 2021)
# Tested on: HEK293T cells carrying the ATF4 luciferase reporter
# Experiment: ATF4-Luc assay, in vitro model of Vanishing Cell White Matter Disease (VWMD)
# Format: cell-based
# Conditions: Homo sapiens, HEK-293T, 1 μg/mL tunicamycin, 7 hours, One Glo luminescence
# Method in brief: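 Reporter cells were stably generated by retroviral transduction and puromycin selection, then seeded at 30,000 cells/well. Next day, cells received 1 μg/mL tunicamycin with 200 nM test compound for 7 h, and luciferase luminescence was read with a one-step reagent. Values reported as EC50.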
row,Compound,EC50 [nM]
1,"Cn1cc(C(=O)NC23CCC(NC(=O)COc4ccc(Cl)c(F)c4)(CC2)C(O)C3)cn1 (stereo not drawn) [Compound 626, N-{4-[2-(4-chloro-3-fluorophenoxy)acetamido]-3-hydroxybicyclo[2.2.2]octan-1-yl}-1-methyl-1H-pyrazole-4-carboxamide]",50 to 250
2,"CCc1ncc(C(=O)NC23CC(NC(=O)COc4ccc(Cl)c(F)c4)(C2)C3)s1 [Compound 292, N-{3-[2-(4-chloro-3-fluorophenoxy)acetamido]bicyclo[1.1.1]pentan-1-yl}-2-ethyl-1,3-thiazole-5-carboxamide]",50 to 250
3,"CC(C)(C)c1cnc(C(=O)NC23CCC(NC(=O)COc4ccc(Cl)c(F)c4)(CC2)[C@@H](O)C3)cn1 [Compound 705, 5-tert-butyl-N-{(3S)-4-[2-(4-chloro-3-fluorophenoxy)acetamido]-3-hydroxybicyclo[2.2.2]octan-1-yl}pyrazine-2-carboxamide]",> 2000
4,"O=C(COc1ccc(Cl)cc1)NC12CC(Nc3nnc(-c4ccc(Cl)cc4)o3)(C1)C2 [Compound 264, 2-(4-chlorophenoxy)-N-(3-{[5-(4-chlorophenyl)-1,3,4-oxadiazol-2-yl]amino}bicyclo[1.1.1]pentan-1-yl)acetamide]",250 to 1000
5,"O=C(COc1ccc(Cl)c(F)c1)NC12CC(NC(=O)c3cnc(-c4ccc(C(F)(F)F)nc4)o3)(C1)C2 [Compound 107, N-{3-[2-(4-chloro-3-fluorophenoxy)acetamido]bicyclo[1.1.1]pentan-1-yl}-2-[6-(trifluoromethyl)pyridin-3-yl]-1,3-oxazole-5-carboxamide]",< 50
6,"Cc1nc(C(=O)NC23CCC(NC(=O)COc4ccc(Cl)c(F)c4)(CC2)C(O)C3)n[nH]1 (stereo not drawn) [Compound 487, N-{4-[2-(4-chloro-3-fluorophenoxy)acetamido]-3-hydroxybicyclo[2.2.2]octan-1-yl}-5-methyl-1H-1,2,4-triazole-3-carboxamide]",< 50
7,"CC(C)(C)c1nc(C(=O)NC23CCC(NC(=O)COc4ccc(Cl)c(F)c4)(CC2)C(O)C3)co1 (stereo not drawn) [Compound 629, 2-tert-butyl-N-{4-[2-(4-chloro-3-fluorophenoxy)acetamido]-3-hydroxybicyclo[2.2.2]octan-1-yl}-1,3-oxazole-4-carboxamide]",250 to 1000
8,"O=C(COc1ccc(Cl)c(F)c1)NC12CCC(NC(=O)c3csc(C(F)(F)F)n3)(CC1)CC2O (stereo not drawn) [Compound 466, N-{4-[2-(4-chloro-3-fluorophenoxy)acetamido]-3-hydroxybicyclo[2.2.2]octan-1-yl}-2-(trifluoromethyl)-1,3-thiazole-4-carboxamide]",< 50
9,"O=C(COc1ccc(Cl)c(F)c1)NC12CC(NC(=O)c3cc(/C=C/CO)ccn3)(C1)C2 [Compound 200, N-{3-[2-(4-chloro-3-fluorophenoxy)acetamido]bicyclo[1.1.1]pentan-1-yl}-4-[(1E)-3-hydroxyprop-1-en-1-yl]pyridine-2-carboxamide]",50 to 250
10,"Cc1nnc(NC23CC(NC(=O)COc4ccc(Cl)c(F)c4)(C2)C3)o1 [Compound 393, 2-(4-chloro-3-fluorophenoxy)-N-{3-[(5-methyl-1,3,4-oxadiazol-2-yl)amino]bicyclo[1.1.1]pentan-1-yl}acetamide]",> 2000
11,"O=C(COc1ccc(Cl)c(F)c1)NC12CC(NC(=O)c3ccc(CO)nc3)(C1)C2 [Compound 718, N-{3-[2-(4-chloro-3-fluorophenoxy)acetamido]bicyclo[1.1.1]pentan-1-yl}-6-(hydroxymethyl)pyridine-3-carboxamide]",250 to 1000
12,"O=C(COc1ccc(Cl)c(F)c1)NC12CC(NC(=O)c3noc4c3CCCC4)(C1)C2 [Compound 880, N-{3-[2-(4-chloro-3-fluorophenoxy)acetamido]bicyclo[1.1.1]pentan-1-yl}-4,5,6,7-tetrahydro-1,2-benzoxazole-3-carboxamide]",> 2000
13,"CC(C)(O)CCc1ccnc(C(=O)NC23CC(NC(=O)COc4ccc(Cl)c(Cl)c4)(C2)C3)c1 [Compound 433, N-{3-[2-(3,4-dichlorophenoxy)acetamido]bicyclo[1.1.1]pentan-1-yl}-4-(3-hydroxy-3-methylbutyl)pyridine-2-carboxamide]",> 2000
14,"Cc1cncc(C(=O)NC23CC(NC(=O)COc4ccc(Cl)c(F)c4)(C2)C3)n1 [Compound 650, N-{3-[2-(4-chloro-3-fluorophenoxy)acetamido]bicyclo[1.1.1]pentan-1-yl}-6-methylpyrazine-2-carboxamide]",50 to 250
15,"Cc1cnc(C(=O)NC23CCC(NC(=O)COc4ccc(Cl)c(Cl)c4)(C2)C3)cn1 [Compound 142, N-{4-[2-(3,4-dichlorophenoxy)acetamido]bicyclo[2.1.1]hexan-1-yl}-5-methylpyrazine-2-carboxamide]",250 to 1000
16,"COc1cc(OC)nc(C(=O)NC23CC(NC(=O)COc4ccc(Cl)c(F)c4)(C2)C3)n1 [Compound 116, N-{3-[2-(4-chloro-3-fluorophenoxy)acetamido]bicyclo[1.1.1]pentan-1-yl}-4,6-dimethoxypyrimidine-2-carboxamide]",> 2000
17,"N#Cc1cccc(C(=O)NC23CCC(NC(=O)COc4ccc(Cl)c(F)c4)(CC2)CC3O)c1 (stereo not drawn) [Compound 209, N-{4-[2-(4-chloro-3-fluorophenoxy)acetamido]-2-hydroxybicyclo[2.2.2]octan-1-yl}-3-cyanobenzamide]",250 to 1000

row,Compound,EC50 [nM]
1,"Cc1cc(C(=O)NC23CC(NC(=O)COc4ccc(Cl)c(F)c4)(C2)C3)on1 [Compound 295, N-{3-[2-(4-chloro-3-fluorophenoxy)acetamido]bicyclo[1.1.1]pentan-1-yl}-3-methyl-1,2-oxazole-5-carboxamide]",250 to 1000
2,"O=C(COc1ccc(Cl)c(F)c1)NC12CCC(NC(=O)c3cc(C(F)F)no3)(CC1)CC2O (stereo not drawn) [Compound 632, N-{4-[2-(4-chloro-3-fluorophenoxy)acetamido]-3-hydroxybicyclo[2.2.2]octan-1-yl}-3-(difluoromethyl)-1,2-oxazole-5-carboxamide]",< 50
3,"O=C(COc1ccc(Cl)c(F)c1)NC12CCC(NC(=O)c3cccc(O)n3)(CC1)CC2O (stereo not drawn) [Compound 943, N-{4-[2-(4-chloro-3-fluorophenoxy)acetamido]-3-hydroxybicyclo[2.2.2]octan-1-yl}-6-hydroxypyridine-2-carboxamide]",50 to 250
4,"CCc1cnc(C(=O)NC23CC(NC(=O)COc4ccc(Cl)c(Cl)c4)(C2)C3)cn1 [Compound 711, N-{3-[2-(3,4-dichlorophenoxy)acetamido]bicyclo[1.1.1]pentan-1-yl}-5-ethylpyrazine-2-carboxamide]",< 50
5,"Cc1nc2cc(C(=O)NC34CC(NC(=O)COc5ccc(Cl)c(F)c5)(C3)C4)ccc2n1C [Compound 810, N-{3-[2-(4-chloro-3-fluorophenoxy)acetamido]bicyclo[1.1.1]pentan-1-yl}-1,2-dimethyl-1H-benzimidazole-5-carboxamide]",> 2000
6,"CC(C)c1cc(C(=O)NC23CC(NC(=O)COc4ccc(Cl)c(F)c4)(C2)C3)on1 [Compound 350, N-{3-[2-(4-chloro-3-fluorophenoxy)acetamido]bicyclo[1.1.1]pentan-1-yl}-3-(propan-2-yl)-1,2-oxazole-5-carboxamide]",250 to 1000
7,"CC(C)c1ccc(C(=O)NC23CC(NC(=O)COc4ccc(Cl)c(Cl)c4)(C2)C3)cn1 [Compound 643, N-{3-[2-(3,4-dichlorophenoxy)acetamido]bicyclo[1.1.1]pentan-1-yl}-6-(propan-2-yl)pyridine-3-carboxamide]",250 to 1000
8,"Cc1nn(C)cc1C(=O)NC12CC(NC(=O)COc3ccc(Cl)c(F)c3)(C1)C2 [Compound 846, N-{3-[2-(4-chloro-3-fluorophenoxy)acetamido]bicyclo[1.1.1]pentan-1-yl}-1,3-dimethyl-1H-pyrazole-4-carboxamide]",1000 to 2000
9,"Cc1ncc(-c2ncc(C(=O)NC34CC(NC(=O)COc5ccc(Cl)c(F)c5)(C3)C4)o2)cn1 [Compound 109, N-{3-[2-(4-chloro-3-fluorophenoxy)acetamido]bicyclo[1.1.1]pentan-1-yl}-2-(2-methylpyrimidin-5-yl)-1,3-oxazole-5-carboxamide]",250 to 1000
10,"Cc1cc(C(=O)NC23CCC(NC(=O)COc4ccc(Cl)c(F)c4)(CC2)[C@H](O)C3)n(C)n1 (single isomer, unassigned) [Compound 486]",50 to 250
11,"Cc1cc(C(=O)NC23CC(NC(=O)COc4ccc(Cl)c(Cl)c4)(C2)C3)n(CC(C)(C)O)n1 [Compound 460, N-{3-[2-(3,4-dichlorophenoxy)acetamido]bicyclo[1.1.1]pentan-1-yl}-1-(2-hydroxy-2-methylpropyl)-3-methyl-1H-pyrazole-5-carboxamide]",> 2000
12,"CCn1cc(C(=O)NC23CC(NC(=O)COc4ccc(Cl)c(F)c4)(C2)C3)cn1 [Compound 252, N-{3-[2-(4-chloro-3-fluorophenoxy)acetamido]bicyclo[1.1.1]pentan-1-yl}-1-ethyl-1H-pyrazole-4-carboxamide]",250 to 1000
13,"O=C(COc1ccc(Cl)c(F)c1)NC12CCC(NC(=O)c3cc(C(F)(F)F)no3)(CC1)C[C@@H]2O [Compound 704, N-{(3S)-4-[2-(4-chloro-3-fluorophenoxy)acetamido]-3-hydroxybicyclo[2.2.2]octan-1-yl}-3-(trifluoromethyl)-1,2-oxazole-5-carboxamide]",< 50
14,"O=C(COc1ccc(C(F)(F)F)nc1)NC12CC(NC(=O)c3cnc(C(F)F)cn3)(C1)C2 [Compound 455, 5-(difluoromethyl)-N-[3-(2-{[6-(trifluoromethyl)pyridin-3-yl]oxy}acetamido)bicyclo[1.1.1]pentan-1-yl]pyrazine-2-carboxamide]",> 2000
15,"Cc1ccc(C(=O)NC23CC(NC(=O)COc4ccc(Cl)c(F)c4)(C2)C3)cc1CO [Compound 452, N-{3-[2-(4-chloro-3-fluorophenoxy)acetamido]bicyclo[1.1.1]pentan-1-yl}-3-(hydroxymethyl)-4-methylbenzamide]",250 to 1000
16,"O=C(COc1ccc(Cl)c(F)c1)NC12CCC(NC(=O)c3ccc(OCC(F)(F)F)nc3)(CC1)CC2O (stereo not drawn) [Compound 579, N-{4-[2-(4-chloro-3-fluorophenoxy)acetamido]-3-hydroxybicyclo[2.2.2]octan-1-yl}-6-(2,2,2-trifluoroethoxy)pyridine-3-carboxamide]",50 to 250
